For assay [1], the system named is Yohimbine-induced noradrenergic hyperarousal in Wistar rats. In words: Elevated plus maze, yohimbine-induced noradrenergic hyperarousal, dose response (Example 3). The following applies: 30 min. Format: in vivo. The source says:
Background: Yohimbine is an alpha 2-adrenergic receptor antagonist reported to trigger panic attacks in healthy volunteers and to exacerbate symptoms in patients with panic disorder (Charney et al., 1992 Acta Psychiatr Scand., Vol. 86 (4): 273-282). Peripheral administration of Yohimbine causes noradrenergic mediated hyperarousal in rats as assessed by the EPM paradigm.
Rationale: The drug yohimbine is a natural product used to test a specific pathway, noradrenergic-mediated hyper-arousal. It is well established that yohimbine is an alpha2-adrenergic receptor antagonist and activates the locus coeruleus (LC) and increases noradrenergic signaling (the opposite of alpha2-adrenergic agonists like dexmedetomidine and clonidine). Increased LC activity and noradrenergic signaling makes animals anxious and agitated which can be measured by using the elevated plus maze. In the elevated plus maze, rodents were in the closed arms and explored the open arms depending on their anxiety and agitation (rats and mice normally explore their environments extensively when calm). […] This behavior is correlated to increased level of anxiety caused by noradrenergic mediated hyperarousal.
Animal groups: Rats were distributed in 9 different experimental groups with 12 […] per group as illustrated in Table 6. Each experimental group was also coded so that the experimenter became unaware of the true experimental group at the time EPM trial.
Acclimatization: Male Wistar rats (Janvier; Le Genest St Isle-France) were used for the study. They were purchased at a body weight of 150 g and reached a body weight of about 220 g at the time of use. They were group-housed (3-4 rats per cage) and maintained in a room with controlled temperature (21-22° C.) and a reversed light-dark cycle (12 h/12 h; lights on: 17:30-05:30; lights off: 05:30-17:30).
Drug preparation: All compounds/drugs were prepared in normal saline (0.9% NaCl).
Yohimbine was prepared at a solution of 2.5 mg/mL which when injected i.p. at a dosage volume of 1 mL/kg results in a dose of 2.5 mg/kg. Diazepam was prepared at a solution of 1 mg/mL which when injected i.p. at a dosage volume of 1 mL/kg results in a dose of 1 mg/kg. Latrepirdine dihydrochloride hydrate was prepared at a solution of 7.5, 2.5, 0.75 and 0.25 mg/mL which when injected i.m. at a volume of 100 μL for a rat of 250 g results in doses of 3; 1; 0.3 and 0.1 mg/kg; respectively. Latrepirdine dihydrochloride hydrate was also prepared at […] which when administrated i.p. at a dosage volume of 1 mL/kg results in a dose of 3 mg/kg.
Experimental procedure: The rats were randomly assigned to one of the different experimental groups. Each animal was identified by its group name, cage number, series (day) of experiment, and a number (from 1 to 9) written with permanent ink on its tail. They were handled by an experimenter for about 3 min each day during 1 week prior to the day of EPM trial. The apparatus was a PVC maze covered with Plexiglas and subdivided into four equal exploratory arms (40×10 cm), which were all interconnected by a small platform (10×10 cm). The apparatus was placed 65 cm above the floor. Two arms were opened, and two others were closed with wall (high: 10 cm). After compound administration, rat was placed on the platform opposite a closed arm. The number of entries and the time spent in each arm were recorded during a 5 min period. The animal was considered as entered in an arm when it placed its four paws in the arm. The apparatus was cleaned between each animal using alcohol (70%). Urine and feces were removed from the maze. During the trials, animal handling and the visibility of the operator were minimized as much as possible.
Statistical analysis: Analysis of variance (ANOVA) was performed on the result data. Fisher's PLSD was used for pairwise comparisons and p value≤0.05 were considered significant. […]

Assay [2] has as its system CCK-4 induced panic anxiety in rats. In words: Elevated plus maze, CCK-4 induced panic anxiety (Example 8). Format: in vivo, Wistar rats. The following applies: diazepam 1 mg/kg; CCK4 0.2 mg/kg i.p. The source says: Rationale: In the past two decades panic induction with cholecystokinin-tetrapeptide (CCK-4) as an experimental model of human anxiety has become a focus of intensive research. CCK-4 is a synthetic analog of the endogenous neuropeptide cholecystokinin (CCK), which has been found in different brain regions. Particularly, high concentrations of CCK have been detected in regions that have been implicated in the mediation of panic attacks such as the cerebral cortex, amygdala, hippocampus, and brainstem nuclei. CCK-4 dose dependently induces panic attacks in healthy controls. Thus, CCK-4 has been postulated to fulfil the criteria for an ideal and valid panicogenic agent. […] Therefore, the CCK-4 challenge paradigm can serve as a useful tool to evaluate the anti-panic potential of novel anxiolytic compounds.
Animal groups: Male Wistar Rats were purchased at a body weight of 150 g and reached a body weight of about 220 g at the time of use. Animals were distributed in 6 different experimental groups with 12 […] per group as illustrated in Table 11. Each experimental group was also coded so that the experimenter became unaware of the true experimental group at the time EPM trial.
Study drugs: All compounds/drugs were prepared in saline (0.9% NaCl).
CCK-4 was prepared at a solution of 0.2 mg/ml which when injected i.p. at a dosage volume of 1 ml/kg results in a dose of 0.2 mg/kg.
Diazepam was prepared at a solution of 1 mg/ml which when injected i.p. at a dosage volume of 1 ml/kg results in a dose of 1 mg/kg.
Latrepirdine was prepared at concentrations of 2.5, 7.5, 25 and 37.5 mg/ml which when injected i.m. at a volume of 100 μL for a rat of 250 g results in doses of 1, 3, 10 and 15 mg/kg respectively.
Study design and dosing: The rats were randomly assigned to one of the different experimental groups. Each animal was identified by its group name, cage number, series (day) of experiment, and a number (from 1 to 4) written with permanent ink on its tail. They were handled by an experimenter for about 3 min each day during 1 week prior to the day of EPM trial.
The apparatus is a PVC maze covered with Plexiglas and subdivided into four equal exploratory arms (40×10 cm), which are all interconnected by a small platform (10×10 cm). The apparatus is placed 65 cm above the floor. Two arms are opened, and two others are closed with wall (high: 10 cm).
After compound administration, rat is placed on the platform opposite a closed arm. The number of entries and the time spent in each arm are recorded during a 5 min period. The animal is considered as entered in an arm when it places its four paws in the arm.
Statistical analysis: Data was analyzed using One-Way ANOVA followed by multiple comparison with Dunnett's post-hoc test. All statistical analyses were performed using GraphPad Prism software package (Version 9) and p value below 0.05 was considered as significant.

Assay [3] has as its system rat forced swim test model (depressive-like behavior). Put plainly: Forced swim test in dark phase (Example 4). The following applies: 30 mg/kg, p.o.; versus vehicle saline, 5 minutes observation. Format: in vivo, Sprague Dawley rats. The source says: Animal groups: Male Sprague Dawley (SD) rats (8-10 weeks old) were grouped housed 2 per cage in standard animal cages with facilities for pelleted food and drinking water in polycarbonate bottle with stainless steel sipper tubes. During the experimental period, animals were housed in a single experimental room. Rats were distributed in 7 different experimental groups with 9-12 rats per group as illustrated in Table 8. Animals were distributed to different groups based on body weight data. Each experimental group was also coded so that the experimenter became unaware of the true experimental group at the time FST trial.
Animals were housed in an environment-controlled room at 22±3° C. and relative humidity of 30 to 70 percent. During the study, 12/12 light/dark cycles were maintained. Lights of the acclimatization area were switched off at 06:00 PM. All experiments were carried out at ambient temperature under dark phase of lighting (between 06:00 PM to 06:00 AM). Adequate fresh air supply of 12-15 air changes/hour was maintained in the experimental room. The maximum and minimum temperature and relative humidity in the experimental rooms was recorded once daily. The relative humidity in the experimental room was calculated daily from dry and wet bulb temperature recordings.
Swim 1 was carried out between 18:30 to 21:30.
Swim 2 was carried out between 19:30 to 21:30. Animals were administered test compounds from 18:30 onwards in staggered manner 60 minutes before FST 2.
Forced swim test was carried out in dark phase
On Day 1, animals were subjected to forced swim test training for 15 minutes (Swim 1) and on Day 2, Swim 2 was carried out post treatment.
On day 2 animals were dosed with respective treatment 60 min prior to performing FST.
Forced swim test (Swim 2) was scored manually with no video recording.
Forced swim test (FST), was used to study the depressive-like behavior in rodents. The test was carried out in transparent cylindrical glass containers measuring 46 cm in height and 20 cm in diameter.
There were 2 swim sessions, 24 h apart. The first session, Swim 1 was the pretest/training stage (15 min) and the second session, Swim 2, was the test stage (8 min).
In swim 2, first 1-minute data was excluded from analysis and rest 7 minutes data was considered. In 7 minutes, data, it was divided 5 minutes and 2 minute.
Twenty-four hours after the start of Swim 1, the test swim (Swim 2) was carried out.
Rat was placed in the water-filled cylinder for 8 min (Swim 2).
The duration of time spent immobile, swimming, and climbing was observed by an observer blind to the treatment group.
Immobility period: A rat was judged to be immobile when it remained floating in the water without struggling and was making only those movements necessary to keep its head above water.
Statistical analysis: One Way ANOVA, Dunnet's multiple comparison test was applied with respect to vehicle saline and Tukey's multiple comparison test was applied to compare the data in between the groups using GraphPad Prism version 9 software.

The subject of assay [4] is mouse behavior (SmartCube signature). Put plainly: SmartCube system behavioral classification (Example 6). Format: in vivo, Male C57/B16 mice. To be noted: IP. The source says: Dexmedetomidine and latrepirdine have anti-psychotic effects, when tested in the SmartCube® system (Psychogenics, Inc., Paramus, NJ; See also U.S. Pat. No. 7,580,798 incorporated herein by reference in its entirety). This system uses features derived from mouse behavioral data to first, classify mice on compound versus vehicle. This measure indicates how well the system can differentiate between a mouse on compound versus a mouse on vehicle. Secondly, by comparing the features to a proprietary reference database of behavioral feature sets that are linked to classes of marketed drugs known to treat neuro-psychiatric symptoms SmartCube® assigns a signature to the behavior. Thus, the system can be used as a model to identify both the activity and the psychiatric effect of a compound by comparing the effects of the compounds against drugs with known validated effects.
By comparing the responses of animals to known drugs, the test drug can be categorized according to its function; for example, hallucinogen, anxiogenic, analgesic, cognitive enhancer, psychostimulant, mood stabilizer, high dose anti-psychotic, anti-psychotic, sedative/hypnotic, anxiolytic, high dose antidepressant, antidepressant.
Once all features are extracted from the raw data through an automated pipeline, proprietary bioinformatics algorithms are used to decorrelate groups of features and find the combination of values that best separate different groups of interest. For each compound, at each dose, they system provides a probability that the drug is active and breaks down such putative activity into the different classes of interest.
SmartCube reference data used herein include anti-psychotics and anti-depressants tested at several dose ranges. “Anti-psychotic” versus “high dose anti-psychotic” as indicated in the legend, reflects the notion that anti-psychotics reference data is dose dependent. Anti-psychotics, when administered at higher doses, can engage additional receptor systems, and thus affect mouse behavior differently. The same applies for different doses of anti-depressants.
Animals: Male C57/B16 mice (N=12 per group) from Taconic Laboratories were used. Upon receipt, mice were group-housed in OPTI mouse ventilated cages with 4 mice per cage. Mice were acclimated to the colony room for at least one week prior to test and subsequently tested at approximately 8-9 weeks of age. All animals were examined, handled, and weighed prior to initiation of the study to assure adequate health and suitability and to minimize non-specific stress associated with manipulation.
All compounds tested were formulated in NP3 (vehicle solution): 5% Pharmasolve; 30% P3 (1:1:1 PEG200: PEG400: propylene glycol); 65% saline; pH is 5.1-6.
Test groups were: • Vehicle: NP3 • Dexmedetomidine at 0.005 and 0.010 mg/kg • Latrepirdine at 1 and 10 mg/kg • Dexmedetomidine and latrepirdine combinations (in mg/kg): 0.005/1.0; 0.005/10; 0.010/1.0; 0.010/10
Test compounds were injected intraperitoneally (IP) for 15 min before animals were placed in SmartCube for assessment.
Antipsychotic: SmartCube classifies the mouse behavior with test compound as similar to treatment with marketed anti-psychotics at therapeutically relevant doses.
High Dose Antipsychotic: SmartCube classifies the mouse behavior on test compound as similar to treatment with marketed anti-psychotics at doses that are considered as high therapeutically. High doses of anti-psychotics often cause sedation.
The results for the class analyses are presented as standardized bar charts with percentages that sum to 100 for each dose. The percentage indicates the probability the classifier can differentiate between the vehicle group and test group. The pattern indicates what class signature was assigned.

Setting [5] is: diazepam 1 mg/kg, i.p., yohimbine hydrochloride 2.5 mg/kg i.p.

Counter-ions that a name gives are not always drawn. Marks after values point to notes of the source that are not given here.

Turning to `CN1C(=O)CN=C(c2ccccc2)c2cc(Cl)ccc21` [Diazepam], in assay [1] (setting [5]), the “Percent increase as referred to the Vehicle level, Entries” value is 294% and the “Percent increase as referred to the Vehicle level, Time” value came out at 642%. In addition, in assay [2], the “Entries, % increase as compared to CCK-4/Vehicle” value is recorded as “(400.00) **** %”; the “Entries, Mean ± SEM” value stood at 9.5±0.5 n; the “Time, % increase as compared to CCK-4/Vehicle” value is reported as “(652.27) **** %”; the “Time, Mean ± SEM” value came out at 99.3 ± 3.8 s.
As to `CNCCCN1c2ccccc2CCc2ccccc21` [desipramine hydrochloride], in assay [3], the climbing time entry is “increase”, the immobility time entry is reported as “significant decrease” and the swimming time result is on record as “failed to show any significant effect”.
As to `Cc1cccc([C@H](C)c2cnc[nH]2)c1C` [dexmedetomidine, (+) 4-(S)-[1-(2,3-dimethylphenyl)ethyl]-1H-imidazole], in assay [4] (0.005 and 0.010 mg/kg), the SmartCube signature result is on record as “antipsychotic signature”. The SmartCube total activity turned out to be 9% in assay [4] (dexmedetomidine 0.005 mg/kg) and 40% in assay [4] (dexmedetomidine 0.010 mg/kg).
Regarding `COC(=O)[C@@H]1[C@H]2C[C@H]3c4[nH]c5ccccc5c4CCN3C[C@@H]2CC[C@@H]1O` [yohimbine], in assay [1] (yohimbine 2.5 mg/kg i.p.), the “number of visits to and time spent into the open arms versus vehicle-treated saline rats” value is reported as “marked significant decrease”.

Values taken from US20260325500A1, “METHODS AND COMPOSITIONS FOR TREATING ACUTE STRESS DISORDER” (BioXcel Therapeutics, Inc., priority 2022, published 2026).
